The text below walks through data of patent US6723512B2, “METHODS USING GENETIC PACKAGE DISPLAY FOR DETECTING AND IDENTIFYING PROTEIN-PROTEIN INTERACTIONS THAT FACILITATE INTERNALIZATION AND TRANSGENE EXPRESSION AND CELLS OR TISSUES COMPETENT FOR THE SAME AND METHODS FOR EVOLVING GENE DELIVERY VECTORS” (priority 1997, dated 2004).

For assay [1], the system named is COS cells. Put plainly: Enhancement of EGF-phage transduction by heat shock and/or camptothecin. The class given is cell-based. The protocol: The effects of heat shock and another genotoxic treatment, camptothecin were tested. Camptothecin is a type I topoisomerase inhibiter that produces DNA strand breaks. Camptothecin is found to enhance transduction efficiency up to 2 fold at 0.1 μM but was inhibitory at higher concentrations (data not shown). EGF displaying phage (MG4-EGF vector) were incubated with COS cells for 24 hours at which time the cells were either not further treated, subjected to a four hour heat shock (42.5° C.), or treated with 0.1 μM camptothecin for four hours. GFP autofluorescent cells were counted at 72 hours after addition of phage.

For assay [2], the system named is COS cells. Put plainly: Transduction of COS cells by peptide display phage (second generation screen). The following applies: overnight incubation, GFP cells at 72 hours, FL5 versus FN5A or FN5B, FIG. 5. The class given is cell-based. On the procedure: Oligonucleotides encoding the 3 peptides are inserted into the MEGFP vector as fusions to the pIII coat protein. The resulting phage are used to transfect COS cells. Phage are added to cells and incubated overnight at 37° C. in medium with 10% fetal calf serum. The cells are washed to remove unbound phage and returned to the incubator. Transduction is assessed by counting GFP expressing autofluorescent cells at 72 hours after the addition of phage.

Turning to `CC[C@@]1(O)C(=O)OCc2c1cc1n(c2=O)Cc2cc3ccccc3nc2-1` [Camptothecin], the “enhancement of targeted phage mediated transduction by camptothecin” value in the assay with COS cells [1] (EGF phage 24 hours, then 0.1 μM camptothecin four hours, GFP cells at 72 hours, FIG. 14) is recorded as ~2 fold. In addition, in the assay on COS cells [1] (FIG. 14), the “effect of combined heat shock and camptothecin over either treatment alone” value is recorded as “modest synergistic increase”. Further, in the assay on COS cells [1] (camptothecin 0.1 μM, data not shown), the “enhancement of transduction efficiency” value was “up to 2 fold”. Moreover, the “effect on transduction at higher concentrations” value with COS cells [1] (concentrations higher than 0.1 μM, data not shown) is “inhibitory”.
Take FVPDPYRKSR [FL5]: the “transduction efficiency compared among peptide display phage” value in the assay with COS cells [2] was “greater transduction efficiency”.
